≈ marks a conversion by molar mass, not a printed value.
System: Human epidermoid carcinoma KB cells
Assay: cell growth inhibiting effect in KB cells (MTT method)
Assay type: cell-based
Conditions: 72 hours culture with compound, absorbance at 590nm, concentration required to decrease the number of cells in the untreated control group by 50%
Description: The cell growth inhibiting effect (IC₅₀)of the compounds obtained in the Examples described below in KB cells was determined by the following method.
Human epidermoid carcinoma KB cells (1 x 10⁴ cells/ml) prepared according to a conventional method were inoculated into each well of the 96-microwell plate (0.1ml in a well) and subjected to standing culture at 37°C under 5% CO₂ for 24 hours. To this was added a solution of one of the compounds obtained in the Examples in 10% MEM (Nissui Pharmaceutical Co. Ltd. Japan), and subjected again to standing culture at 37°C under 5% CO₂ for 72 hours. Then the culture was pipetted out, and another 0.1ml of the solution of MTT (Dojin Laboratories Japan) in 10 % MEM (1.0mg/ml) was added and incubated at 37°C for 4 hours. Then 0.1ml of the […] (Wako Pure Chemicals, Japan) was added and incubated at 37°C for further 24 hours. The absorbance at 590nm was measured and the IC₅₀ value of the compound was defined as the concentration of the compound required to decrease the number of cells in the untreated control group by 50%.

Row | SMILES | IC₅₀ | IC50 (Homo sapiens, read-out: IC₅₀)
1 | CN(CCC1CNc2nc(N)nc(N)c21)c1ccc(C(=O)N[C@@H](CCC(=O)O)C(=O)O)cc1 (stereo partly drawn) [Example 4, N-[4-[N-[2-(2,4-diamino-6,7-dihydro-5H-pyrrolo[2,3-d]pyrimidin-5-yl)ethyl]-N-methyl]aminobenzoyl]-L-glutamic acid] | 0.0025 µg/mL | 
2 | CN(CCc1c[nH]c2nc(N)nc(N)c12)c1ccc(C(=O)N[C@@H](CCC(=O)O)C(=O)O)cc1 [Example 6, N-[4-[N-[2-(2,4-diamino-7H-pyrrolo[2,3-d]pyrimidin-5-yl)ethyl]-N-methyl]aminobenzoyl]-L-glutamic acid] | 0.0013 µg/mL | 
3 | Nc1nc(N)c2c(n1)NCC2CCNc1ccc(C(=O)N[C@@H](CCC(=O)O)C(=O)O)cc1 (stereo partly shown) [Example 10] | 0.0025 µg/mL | 
4 | CCCCCCCC(=O)Nc1nc(S)c2c(CNCc3ccc(C(=O)N[C@@H](CCC(=O)OCC)C(=O)OCC)cc3)c[nH]c2n1 [Example 13, diethyl N-[4-[N-(4-mercapto-2-octanoylamino-7H-pyrrolo[2,3-d]pyrimidin-5-ylmethyl)aminomethyl]benzoyl] -L-glutamate] |  | 5 ng/mL (≈ 7.8 nM)
